≈ marks a conversion by molar mass, not a printed value. Where two headings read alike, the source gives them in different places.
Experiments:
[1] = test system: Enterococcus faecalis (ATCC29212); test: Broth microdilution MIC assay, Enterococcus faecalis; assay type: cell-based; conditions: read-out: Antibacterial activity, EFs (Enterococcus faecalis), MIC class
[2] = test system: Staphylococcus aureus MRSA (COL); test: Broth microdilution MIC assay, Staphylococcus aureus MRSA (COL); assay type: cell-based; conditions: for Antibacterial activity Staphylococcus aureus (MRSA): MIC class score, MIC100, broth microdilution, COL strain
[3] = test system: vancomycin-resistant Enterococcus faecalis (ATCC51575); test: microbe, parasite or virus in culture; assay type: cell-based; conditions: ATCC51575; vancomycin-resistant Enterococcus faecalis; read-out: Antibacterial activity, VREFs (vancomycin-resistant EFs), MIC class
[4] = test system: Streptococcus pneumoniae (Chester, ATCC49619); test: Broth microdilution MIC assay, Streptococcus pneumoniae; assay type: cell-based; conditions: for MIC: Streptococcus pneumoniae, ATCC49619, read-out: Antibacterial activity, SP (Streptococcus pneumoniae), MIC class; for Antibacterial activity Streptococcus pneumoniae: MIC class score, MIC100, broth microdilution
[5] = test system: vancomycin-resistant Enterococcus faecium (ATCC51559); test: microbe, parasite or virus in culture; assay type: cell-based; conditions: ATCC51559; vancomycin-resistant Enterococcus faecium; read-out: Antibacterial activity, VREFm (vancomycin-resistant EFm), MIC class
[6] = test system: Staphylococcus epidermidis (PCI 1200, ATCC12228); test: Broth microdilution MIC assay, Staphylococcus epidermidis; assay type: cell-based; conditions: read-out: Antibacterial activity, SE (Staphylococcus epidermidis), MIC class
[7] = test system: Enterococcus faecium (AGR15, ATCCBAA-2127); test: Broth microdilution MIC assay, Enterococcus faecium; assay type: cell-based; conditions: ATCCBAA2127, read-out: Antibacterial activity, EFm (Enterococcus faecium), MIC class
[8] = test system: Staphylococcus aureus MSSA (Newman); test: Broth microdilution MIC assay, Staphylococcus aureus MSSA (Newman); assay type: cell-based; conditions: for Antibacterial activity Staphylococcus aureus (MSSA): MIC class score, MIC100, broth microdilution, Newman strain; for MIC: Staphylococcus aureus
[9] = test system: Mycobacterium smegmatis (mc(2)155); test: Broth microdilution MIC assay, Mycobacterium smegmatis
[10] = test system: MRSA (COL) resistant to triclosan; test: Broth microdilution MIC assay, triclosan-resistant MRSA; conditions: Staphylococcus aureus, read-out: Antibacterial activity, MRSA strains with additional resistance, T (triclosan), MIC class
[11] = test system: platensimycin-resistant Staphylococcus aureus (from MRSA COL); test: Broth microdilution MIC assay, platensimycin-resistant MRSA; assay type: cell-based; conditions: 24 h, read-out: Antibacterial activity, MRSA strains with additional resistance, P (platensimycin), MIC class
[12] = test system: daptomycin-resistant Staphylococcus aureus (from MRSA COL); test: Broth microdilution MIC assay, daptomycin-resistant MRSA; assay type: cell-based; conditions: 24 h, read-out: Antibacterial activity, MRSA strains with additional resistance, D (daptomycin), MIC class
[13] = read-out: Antibacterial activity, MSSA (Staphylococcus aureus MSSA), MIC class
[14] = read-out: Antibacterial activity Staphylococcus aureus (MSSA)

For Cc1nc(-c2ccc(-c3ccc(Cl)c(OC(F)(F)F)c3)o2)[nH]c1-c1ccc(Cl)cc1 [compound 44], the MIC [1] was 20 to 50 µg/mL (≈ 44.1 to 110 µM), the “Antibacterial activity Staphylococcus aureus (MRSA)” value [2] was 2 (MIC100 of 11-20 μg/ml) and the MIC [3] was 11 to 20 µg/mL (≈ 24.3 to 44.1 µM). For the same compound, the MIC [4] was less than 1 µg/mL, the MIC [5] was 11 to 20 µg/mL (≈ 24.3 to 44.1 µM) and the MIC [6] was 11 to 20 µg/mL (≈ 24.3 to 44.1 µM). For the same compound, the MIC [7] was 20 to 50 µg/mL (≈ 44.1 to 110 µM).
With Cc1[nH]c(-c2ccc(-c3ccc(C(F)(F)F)cc3)s2)nc1-c1ccccc1 [compound 46] the “Antibacterial activity Staphylococcus aureus (MSSA)” value [8] was 2 (MIC100 of 11-20 μg/ml), the MIC [8, 13] was 11 to 20 µg/mL (≈ 28.6 to 52 µM) and the “Antibacterial activity Streptococcus pneumoniae” value [4] was 3 (MIC100 of 2-5 μg/ml).
Cc1[nH]c(-c2ccc(-c3ccc(C(F)(F)F)cc3)o2)nc1-c1ccc(Cl)cc1 [compound 47] was tested, and the MIC [1] was 20 to 50 µg/mL (≈ 49.7 to 124 µM), the “Antibacterial activity Staphylococcus aureus (MRSA)” value [2] was 3 (MIC100 of 3-10 μg/ml) and the MIC [3] was 20 to 50 µg/mL (≈ 49.7 to 124 µM). For the same compound, the MIC [5] was 20 to 50 µg/mL (≈ 49.7 to 124 µM), the “Antibacterial activity, MS (Mycobacterium smegmatis), MIC class” value [9] was 3 (MIC100 of 3-10 μg/ml) and the MIC [7] was 20 to 50 µg/mL (≈ 49.7 to 124 µM).
Cc1[nH]c(-c2ccc(-c3ccc(OC(F)(F)F)cc3)o2)nc1-c1ccc(Cl)cc1 [compound 48] gave an MIC [1] of 20 to 50 µg/mL (≈ 47.8 to 119 µM), an MIC [3] of 20 to 50 µg/mL (≈ 47.8 to 119 µM) and an MIC [5] of 20 to 50 µg/mL (≈ 47.8 to 119 µM). For the same compound, the MIC [6] was 11 to 20 µg/mL (≈ 26.3 to 47.8 µM).
For Cc1[nH]c(-c2ccc(-c3ccc(OC(F)(F)F)c(Cl)c3)o2)nc1-c1ccc(Cl)cc1 [compound 50], the MIC ([2]; Staphylococcus aureus, MRSA, read-out: Antibacterial activity, MRSA (Staphylococcus aureus MRSA), MIC class) was 11 to 20 µg/mL (≈ 24.3 to 44.1 µM), the “Antibacterial activity Streptococcus pneumoniae” value [4] was 3 (MIC100 of 2-5 μg/ml) and the MIC [4] was 2 to 5 µg/mL (≈ 4.41 to 11 µM).
Cc1[nH]c(-c2ccc(-c3ccc(OC(F)(F)F)cc3Cl)o2)nc1-c1ccc(F)cc1 [compound 51] was tested, and the “Antibacterial activity Staphylococcus aureus (MSSA)” value [8] was 2 (MIC100 of 11-20 μg/ml), the MIC [8, 13] was 11 to 20 µg/mL (≈ 25.2 to 45.8 µM) and the MIC [10] was 3 to 10 µg/mL (≈ 6.87 to 22.9 µM). It also gave an MIC [11] of 11 to 20 µg/mL (≈ 25.2 to 45.8 µM) and an MIC [12] of 1 to 3 µg/mL (≈ 2.29 to 6.87 µM).
With FC(F)(F)c1ccccc1-c1ccc(-c2nc(Cl)c(-c3ccccc3)[nH]2)o1 [compound 65] the “Antibacterial activity Staphylococcus aureus (MSSA)” value [8] was 2 (MIC100 of 11-20 μg/ml), the MIC [8, 13] was 11 to 20 µg/mL (≈ 28.3 to 51.4 µM) and the MIC [4] was less than 1 µg/mL.
For FC(F)(F)Oc1ccccc1-c1ccc(-c2nc(-c3ccccc3Cl)c[nH]2)o1 [compound 67], the MIC [4] was 2 to 5 µg/mL (≈ 4.94 to 12.4 µM) and the MIC [6] was 11 to 20 µg/mL (≈ 27.2 to 49.4 µM).
For FC(F)(F)Oc1ccccc1-c1ccc(-c2nc(-c3ccc(Cl)cc3Cl)c[nH]2)o1 [compound 68], the “Antibacterial activity Staphylococcus aureus (MSSA)” value [8] was 2 (MIC100 of 11-20 μg/ml), the MIC [8, 13] was 11 to 20 µg/mL (≈ 25 to 45.5 µM) and the MIC [4] was 6 to 10 µg/mL (≈ 13.7 to 22.8 µM). For the same compound, the MIC [11] was 20 to 50 µg/mL (≈ 45.5 to 114 µM) and the MIC [12] was 1 to 3 µg/mL (≈ 2.28 to 6.83 µM).
With Cc1ccccc1-c1cnc(-c2ccc(-c3ccccc3C(F)(F)F)o2)[nH]1 [compound 69] the MIC [8, 13] was 11 to 20 µg/mL (≈ 29.9 to 54.3 µM), the “Antibacterial activity Staphylococcus aureus (MRSA)” value [2] was 2 (MIC100 of 11-20 μg/ml) and the MIC [4] was less than 1 µg/mL. The MIC [5] was 20 to 50 µg/mL (≈ 54.3 to 136 µM) and the “Antibacterial activity, MS (Mycobacterium smegmatis), MIC class” value [9] was 2 (MIC100 of 11-20 μg/ml).
With FC(F)(F)c1ccccc1-c1ccc(-c2ncc(-c3ccccc3)[nH]2)o1 [compound 75] the MIC [8, 14] was 11 to 20 µg/mL (≈ 31 to 56.4 µM) and the “Antibacterial activity Streptococcus pneumoniae” value [4] was 3 (MIC100 of 2-5 μg/ml).
With Cc1nc(-c2ccc(-c3ccccc3F)o2)[nH]c1-c1ccc(O)cc1 [compound 77] the “Antibacterial activity Staphylococcus aureus (MSSA)” value [8] was 3 (MIC100 of 3-10 μg/ml) and the “Antibacterial activity Streptococcus pneumoniae” value [4] was 3 (MIC100 of 2-5 μg/ml).
In the case of Cc1nc(-c2ccc(-c3ccc(O)cc3F)o2)[nH]c1-c1ccc(O)cc1 [compound 120], the “Antibacterial activity Staphylococcus aureus (MSSA)” value [8] is reported as 2 (MIC100 of 11-20 μg/ml).
For Fc1ccc(-c2ccc(-c3nc4ccccc4[nH]3)o2)cc1 [compound 121], the “Antibacterial activity Staphylococcus aureus (MRSA)” value [2] was “in- active” and the “Antibacterial activity Streptococcus pneumoniae” value [4] was “in- active”.
Fc1ccc(-c2ccc(-c3nc4ccccc4[nH]3)o2)c(F)c1 [compound 122] was tested, and the “Antibacterial activity Staphylococcus aureus (MRSA)” value [2] was “in- active” and the “Antibacterial activity Streptococcus pneumoniae” value [4] was “in- active”.
With Cc1nc(-c2ccc(-c3cccc(O)c3)o2)[nH]c1-c1ccccc1 [compound 145] the MIC [8, 14] was 11 to 20 µg/mL (≈ 34.8 to 63.2 µM) and the “Antibacterial activity Streptococcus pneumoniae” value [4] was 2 (MIC100 of 6-10 μg/ml).
With Cc1nc(-c2ccc(-c3ccccc3O)o2)[nH]c1-c1ccccc1 [compound 149] the MIC [8, 14] was 11 to 20 µg/mL (≈ 34.8 to 63.2 µM).
With Cc1nc(-c2ccc(-c3ccc(O)cc3)o2)[nH]c1-c1ccccc1 [compound 150] the MIC [8, 14] was 11 to 20 µg/mL (≈ 34.8 to 63.2 µM) and the “Antibacterial activity Streptococcus pneumoniae” value [4] was 2 (MIC100 of 6-10 μg/ml).
Cc1nc(-c2ccc(-c3ccc4cc(O)ccc4c3)o2)[nH]c1-c1ccccc1 [compound 154] was tested, and the MIC [8, 14] was 11 to 20 µg/mL (≈ 30 to 54.6 µM) and the “Antibacterial activity Streptococcus pneumoniae” value [4] was 2 (MIC100 of 6-10 μg/ml).
